Tests used:
Format in all cases: cell-based
CRM1 = target: T1, CRM1 (Homo sapiens, UniProt O14980); test: Inhibition of nuclear export, RevGFP assay in U2OS-RevGFP cells; settings: approximately 1 hour incubation
T1 construct: endogenous in cells; host or cells: U2OS cells stably expressing Rev-GFP
Experimental: The inhibition of CRM1 mediated nuclear export by compounds of the invention was determined in a RevGFP assay. Rev is a protein from human immunodeficiency virus type 1 (HIV-1) and contains a nuclear export signal (NES) in its C-terminal domain and a nuclear localization signal (NLS) in its N-terminal domain. Nuclear export of Rev protein is dependent on the classical NES/CRM1 pathway (Neville et al, 1997, Kau et al, 2003).
In this assay, U2OS-RevGFP cells were seeded onto clear-bottom, black, 384-well plates the day before the experiment. Compounds were serially diluted 1:2 starting from 40 μM in a separate 384-well plate in DMEM, and then transferred onto cells. Cells were incubated with compound for approximately 1 hour before fixation with 3.7% formaldehyde and nuclei staining with Hoechst 33258. The amount of GFP in cell nuclei was measured and compound IC50s were determined (Kau et al, 2003).

MM1S cells = test: MTT cell proliferation assay; settings: Homo sapiens, MM1.S, approximately 64-72 hours
Experimental: (§1) The MTT cell proliferation assay was used to study the cytotoxic properties of the compounds. The assay was performed according to the method described by Roche Molecular Biochemicals, with minor modifications. The assay is based on the cleavage of the tetrazolium salt, MTT, in the presence of an electron-coupling reagent. The water-insoluble formazan salt produced must be solubilized in an additional step. Cells grown in a 96-well tissue culture plate were incubated with the MTT solution for approximately 4 hours. After this incubation period, a water-insoluble formazan dye formed. After solubilization, the formazan dye was quantitated using a scanning multi-well spectrophotometer (ELISA reader). […] The cells were seeded at 5,000-10,000 cells in each well of 96-well plate in 100 μL of fresh culture medium and were allowed to attach overnight. The stock solutions of the compounds were diluted in 100 μL cell culture medium to obtain eight concentrations of each test compound, ranging from 1 nM to 30 μM. […] All optical densities were measured at 490 nm using a Vmax Kinetic Microplate Reader (Molecular Devices). In most cases, the assay was performed in duplicate and the results were presented as a mean percent inhibition to the negative control±SE. The following formula was used to calculate the percent of inhibition: Inhibition (%)=(1−(ODo/OD))×100.
(§2) The compounds were tested against Z138, MM1S and 3T3 cells. The Z138 cell line is a mature B-cell acute lymphoblastic leukemia cell line derived from a patient with chronic lumphocytic leukemia. The MM1S cell line was established from the peripheral blood of a human multiple myeloma patient. 3T3 cells are standard fibroblast cells; they were originally isolated from Swiss mouse embryo tissue.

3T3 cells = test: MTT cell proliferation assay; settings: Mus musculus, NIH3T3, approximately 64-72 hours
Experimental: as §1, §2

Z138 cells = test: MTT cell proliferation assay; settings: Homo sapiens, Z-138, approximately 64-72 hours
Experimental: as §1, §2

T1 sequence (O14980 whole entry): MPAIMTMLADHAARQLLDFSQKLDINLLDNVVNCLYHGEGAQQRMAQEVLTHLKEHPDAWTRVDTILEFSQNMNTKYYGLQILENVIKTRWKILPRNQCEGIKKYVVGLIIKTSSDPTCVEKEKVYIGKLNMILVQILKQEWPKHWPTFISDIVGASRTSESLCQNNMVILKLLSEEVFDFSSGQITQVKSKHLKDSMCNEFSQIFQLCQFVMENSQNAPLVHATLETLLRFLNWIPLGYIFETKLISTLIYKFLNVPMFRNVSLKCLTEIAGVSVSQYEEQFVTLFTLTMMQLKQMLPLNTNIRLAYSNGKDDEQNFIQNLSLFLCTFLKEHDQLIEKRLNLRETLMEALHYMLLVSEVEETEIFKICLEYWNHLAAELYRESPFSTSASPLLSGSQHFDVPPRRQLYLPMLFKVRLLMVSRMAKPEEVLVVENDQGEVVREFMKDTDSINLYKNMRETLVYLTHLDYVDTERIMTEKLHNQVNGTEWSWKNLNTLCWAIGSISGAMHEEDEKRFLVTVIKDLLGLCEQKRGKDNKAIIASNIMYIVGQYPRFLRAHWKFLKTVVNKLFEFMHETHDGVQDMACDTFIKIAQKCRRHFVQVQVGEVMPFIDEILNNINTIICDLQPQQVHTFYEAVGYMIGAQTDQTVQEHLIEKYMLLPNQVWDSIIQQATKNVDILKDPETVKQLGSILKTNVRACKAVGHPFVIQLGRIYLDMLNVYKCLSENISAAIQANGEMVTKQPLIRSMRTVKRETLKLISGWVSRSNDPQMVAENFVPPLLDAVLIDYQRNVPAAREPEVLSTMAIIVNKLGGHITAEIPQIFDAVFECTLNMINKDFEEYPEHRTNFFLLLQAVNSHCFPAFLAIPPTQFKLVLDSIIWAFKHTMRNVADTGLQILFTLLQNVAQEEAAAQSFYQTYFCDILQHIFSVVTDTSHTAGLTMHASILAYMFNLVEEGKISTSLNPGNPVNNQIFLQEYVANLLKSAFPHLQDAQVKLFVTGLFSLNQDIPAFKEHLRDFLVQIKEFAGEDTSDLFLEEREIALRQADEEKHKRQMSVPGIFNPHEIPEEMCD

SMILES	IC50 (CRM1) [µM]	IC50 (MM1S cells) [µM]	IC50 (3T3 cells) [µM]	IC50 (Z138 cells) [µM]
CN(C)C(=O)/C(=C/n1cnc(-c2cc(C(F)(F)F)cc(C(F)(F)F)c2)n1)c1ccncc1 [Compound 113, (E)-3-(3-(3,5-bis(trifluoromethyl)phenyl)-1H-1,2,4-triazol-1-yl)-N,N-dimethyl-2-(pyridin-4-yl)acrylamide]	5 to 30	0.1 to 5	–	–
NC(=O)/C(=C/n1cnc(-c2cc(C(F)(F)F)cc(C(F)(F)F)c2)n1)c1nccs1 [Compound 111, (Z)-3-(3-(3,5-bis(trifluoromethyl)phenyl)-1H-1,2,4-triazol-1-yl)-2-(thiazol-2-yl)acrylamide]	< 0.1	< 0.1	> 30	–
N#C/C(=C/n1cnc(-c2cc(C(F)(F)F)cc(C(F)(F)F)c2)n1)c1ccncc1 [Compound 105, (E)-3-(3-(3,5-bis(trifluoromethyl)phenyl)-1H-1,2,4-triazol-1-yl)-2-(pyridin-4-yl)acrylonitrile]	0.1 to 5	0.1 to 5	> 30	–
NC(=O)/C(=C/n1cnc(-c2cc(C(F)(F)F)cc(C(F)(F)F)c2)n1)c1cncc(F)c1 [Compound 126, (E)-3-(3-(3,5-Bis(trifluoromethyl)phenyl)-1H-1,2,4-triazol-1-yl)-2-(5-fluoropyridin-3-yl)acrylamide]	–	< 0.1	> 30	< 0.1
NC(=O)/C(=C/n1cnc(-c2cc(C(F)(F)F)cc(C(F)(F)F)c2)n1)c1ccc(-c2cccnc2)cc1 [Compound 151, (E)-3-(3-(3,5-bis(trifluoromethyl)phenyl)-1H-1,2,4-triazol-1-yl)-2-(4-(pyridin-3-yl)phenyl)acrylamide]	–	0.1 to 5	> 30	5 to 30
Cn1cc(/C(=C\n2cnc(-c3cc(C(F)(F)F)cc(C(F)(F)F)c3)n2)C(N)=O)cn1 [Compound 114, (E)-3-(3-(3,5-bis(trifluoromethyl)phenyl)-1H-1,2,4-triazol-1-yl)-2-(1-methyl-1H-pyrazol-4-yl)acrylamide]	0.1 to 5	< 0.1	–	–
Cc1noc(C)c1/C(=C\n1cnc(-c2cc(C(F)(F)F)cc(C(F)(F)F)c2)n1)C(=O)OC(C)C [Compound 116, isopropyl (E)-3-(3-(3,5-bis (trifluoromethyl)phenyl)-1H-1,2,4-triazol-1-yl)-2-(3,5-dimethylisoxazol-4-yl) acrylate]	0.1 to 5	0.1 to 5	–	–

The next lines start with results.

IC50 (CRM1) [µM]	IC50 (MM1S cells) [µM]	SMILES	IC50 (3T3 cells) [µM]	IC50 (Z138 cells) [µM]
0.1 to 5	< 0.1	CC(C)OC(=O)/C(=C/n1cnc(-c2cc(C(F)(F)F)cc(C(F)(F)F)c2)n1)c1cnn(C)c1 [Compound 130, isopropyl (E)-3-(3-(3,5-bis(trifluoromethyl)phenyl)-1H-1,2,4-triazol-1-yl)-2-(1-methyl-1H-pyrazol-4-yl)acrylate]	–	–
< 0.1	–	NC(=O)/C(=C/n1cnc(-c2cc(C(F)(F)F)cc(C(F)(F)F)c2)n1)c1cncc(F)c1 [Compound 132, (E)-3-(3-(3,5-bis(trifluoromethyl)phenyl)-1H-1,2,4-triazol-1-yl)-2-(5-fluoropyridin-3-yl)acrylamide]	–	–
0.1 to 5	0.1 to 5	CC(C)OC(=O)/C(=C/n1cnc(-c2cc(C(F)(F)F)cc(C(F)(F)F)c2)n1)c1cncnc1 [Compound 115, isopropyl (E)-3-(3-(3,5-bis(trifluoromethyl)phenyl)-1H-1,2,4-triazol-1-yl)-2-(pyrimidin-5-yl)acrylate]	–	–
–	< 0.1	NC(=O)/C(=C\n1cnc(-c2cc(C(F)(F)F)cc(C(F)(F)F)c2)n1)c1cncnc1 [Compound 153, (Z)-3-(3-(3,5-bis(trifluoromethyl)phenyl)-1H-1,2,4-triazol-1-yl)-2-(pyrimidin-5-yl)acrylamide]	> 30	0.1 to 5
–	< 0.1	NC(=O)/C(=C/n1cnc(-c2cc(C(F)(F)F)cc(C(F)(F)F)c2)n1)c1ccnnc1 [Compound 133, (E)-3-(3-(3,5-bis(trifluoromethyl)phenyl)-1H-1,2,4-triazol-1-yl)-2-(pyridazin-4-yl)acrylamide]	5 to 30	< 0.1
